Among the data in patent US12281079B2, “Quinoline derivatives, processes for their preparation and uses thereof for the treatment of cancer” (Lead Discovery Center GmbH, priority 2019, dated 2025) are IC50 values, retold here.

Test [1] concerns the target mitochondrial RNA polymerase (POLRMT) (Mus musculus, UniProt Q8BKF1). As to the kind of experiment: Homogeneous TR-FRET assay for mitochondrial transcription activity. The class given is biochemical. The following applies: homogeneous TR-FRET assay according to Example 4. In short, it runs like this: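 Read-out is TR-FRET (ex 340, em 665 nm) from two adjacent labelled DNA probes annealing to the 407 bp transcript after EDTA/700 mM NaCl stop. Reaction: murine POLRMT, TFAM, TFB2M and LSP plasmid template, compound 10 μM or serial dilution, 10 min rt preincubation, 500 μM each nucleotide, 2 h rt.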
In general terms: Time-resolved FRET reads energy transfer from a long-lived donor to a nearby acceptor.

Test [2] relates to mitochondrial transcription (7S RNA) in HeLa cells. As to the kind of experiment: Quantitative real time-PCR assay of inhibition of mitochondrial transcription (7S RNA) in HeLa cells. The following applies: Homo sapiens, 4 h compound incubation, according to Example 5, read-out: cellular qPCR assay. It is filed as cell-based. In a few lines:
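HeLa cells were exposed to compound dilution series or DMSO for 4 h, then RNA was extracted, normalized and reverse-transcribed. TaqMan qRT-PCR measured short-lived 7S RNA, with POLRMT as nuclear-transcription readout and TBP as housekeeping gene. Biological triplicates were analyzed by ΔΔCt and reported as Rq % (2−ΔΔCt).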
(Real-time PCR tracks product formation cycle by cycle.)

Chain of mitochondrial RNA polymerase (POLRMT) (Q8BKF1 42-1207): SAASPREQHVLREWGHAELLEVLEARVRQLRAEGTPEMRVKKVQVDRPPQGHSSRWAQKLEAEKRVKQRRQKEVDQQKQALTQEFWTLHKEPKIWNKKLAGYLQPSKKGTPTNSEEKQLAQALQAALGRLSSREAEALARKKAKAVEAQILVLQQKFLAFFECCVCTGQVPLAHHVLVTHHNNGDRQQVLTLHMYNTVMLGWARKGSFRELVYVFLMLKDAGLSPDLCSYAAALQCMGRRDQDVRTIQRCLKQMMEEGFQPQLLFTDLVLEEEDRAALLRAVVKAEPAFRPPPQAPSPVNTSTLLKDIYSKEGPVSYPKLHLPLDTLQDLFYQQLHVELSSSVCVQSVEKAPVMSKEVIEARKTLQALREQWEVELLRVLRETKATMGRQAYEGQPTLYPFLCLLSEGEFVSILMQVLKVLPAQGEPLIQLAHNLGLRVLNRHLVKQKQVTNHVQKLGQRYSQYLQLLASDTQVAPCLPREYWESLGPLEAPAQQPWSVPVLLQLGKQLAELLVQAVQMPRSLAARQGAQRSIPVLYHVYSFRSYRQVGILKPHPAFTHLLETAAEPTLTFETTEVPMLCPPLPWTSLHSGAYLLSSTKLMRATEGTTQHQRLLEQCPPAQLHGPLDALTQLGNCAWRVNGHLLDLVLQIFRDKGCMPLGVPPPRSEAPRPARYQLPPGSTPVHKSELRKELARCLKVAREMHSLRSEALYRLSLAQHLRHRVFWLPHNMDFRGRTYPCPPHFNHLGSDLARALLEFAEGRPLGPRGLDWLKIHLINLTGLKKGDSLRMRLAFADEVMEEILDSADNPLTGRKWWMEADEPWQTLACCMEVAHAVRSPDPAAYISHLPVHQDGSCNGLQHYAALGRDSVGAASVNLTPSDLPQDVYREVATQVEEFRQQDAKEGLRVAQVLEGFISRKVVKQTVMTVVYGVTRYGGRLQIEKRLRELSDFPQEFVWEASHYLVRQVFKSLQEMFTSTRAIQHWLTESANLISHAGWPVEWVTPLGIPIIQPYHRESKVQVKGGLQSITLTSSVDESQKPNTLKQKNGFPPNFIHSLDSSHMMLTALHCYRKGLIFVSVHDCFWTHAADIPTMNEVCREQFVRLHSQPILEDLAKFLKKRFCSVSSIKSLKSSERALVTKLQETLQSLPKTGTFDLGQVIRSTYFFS

Consider `Cc1cc(F)cc(C)c1-c1ccnc2cc(O[C@H](C)C(=O)N3CCCC[C@@H]3C)ccc12` [Compound 176, (2R)-2-[[4-(4-fluoro-2,6-dimethyl-phenyl)-7-quinolyl]oxy]-1-[(2S)-2-methyl-1-piperidyl]propan-1-one], for which the IC50 in test [1] was less than 20 nM; in test [2], 10 to 50 nM.
The matching figures for `C[C@@H](Oc1ccc2c(-c3ccc(F)cc3Cl)ccnc2c1)C(=O)N1CCC[C@H](c2nn[nH]n2)C1` [Compound 11, (2R)-2-[[4-(2-chloro-4-fluoro-phenyl)-7-quinolyl]oxy]-1-[(3S)-3-(2H-tetrazol-5-yl)-1-piperidyl]propan-1-one]: less than 20 nM and 50 to 500 nM.
The matching figures for `Cc1cc(-c2ccccc2C)c2ccc(O[C@H](C)C(=O)N3CCC[C@H](C(=O)O)C3)cc2n1` [Compound 31, (3S)-1-[(2R)-2-[[2-methyl-4-(o-tolyl)-7-quinolyl]oxy]propanoyl]piperidine-3-carboxylic acid]: 100 to 1000 nM and less than 10 nM.
As for `Cc1cc(F)cc(C)c1-c1ccnc2cc(O[C@H](C)C(=O)N3CCCC(C4(C(=O)O)CC4)C3)ccc12` (mixture of isomers) [Compound 182, 1-[1-[rac-(2R)-2-[[4-(4-fluoro-2,6-dimethyl-phenyl)-7-quinolyl]oxy]propanoyl]-3-piperidyl]cyclopropanecarboxylic acid], the IC50 in test [1] was less than 20 nM; in test [2], less than 10 nM.
`Cc1cc(F)cc(C)c1-c1ccnc2cc(O[C@H](C)C(=O)N3CCC[C@](C)(C(=O)O)C3)ccc12` [Compound 184, (3S)-1-[(2R)-2-[[4-(4-fluoro-2,6-dimethyl-phenyl)-7-quinolyl]oxy]propanoyl]-3-methyl-piperidine-3-carboxylic acid]: the results for the IC50 in test [1] and in test [2] were less than 20 nM and less than 10 nM, respectively.
Taken in the same sequence, the figures for `CCOC(=O)[C@H]1CCCN(C(=O)[C@@H](C)Oc2ccc3c(-c4ccccc4C)ccnc3c2)C1` [Compound 14, ethyl (3S)-1-[(2R)-2-[[4-(o-tolyl)-7-quinolyl]oxy]propanoyl]piperidine-3-carboxylate] were 20 to 100 nM and 50 to 500 nM.
As for `C[C@@H](Oc1ccc2c(-c3ccc(F)cc3Cl)cc(Cl)nc2c1)C(=O)N1CCC[C@H](CC(=O)O)C1` [Compound 56, 2-[(3R)-1-[(2R)-2-[[2-chloro-4-(2-chloro-4-fluoro-phenyl)-7-quinolyl]oxy]propanoyl]-3-piperidyl]acetic acid], the results for the IC50 in test [1] and in test [2] were 100 to 1000 nM and 50 to 500 nM, respectively.
Taken in the same sequence, the figures for `CNC(=O)[C@H]1CCCN(C(=O)[C@@H](C)Oc2ccc3c(-c4ccc(F)cc4Cl)ccnc3c2)C1` [Compound 38, (3S)-1-[(2R)-2-[[4-(2-chloro-4-fluoro-phenyl)-7-quinolyl]oxy]propanoyl]-N-methyl-piperidine-3-carboxamide] were 100 to 1000 nM and 10 to 50 nM.
